Results from patent US20220380319A1 (Bial - R&D Investments, S.A., priority 2019, published 2022).
Values after ≈ are worked out from the molar mass of the structure shown.

How the values were obtained:
[1] = target: T1, acid ceramidase (Homo sapiens, UniProt Q13510); experiment: Acid ceramidase inhibition, biochemical fluorescent assay with cell lysates overexpressing acid ceramidase, substrate Rbm14-12; settings: substrate Rbm14-12 6.3 μM
T1 construct: Cell lysates overexpressing acid ceramidase were used as the enzyme source; expressed in transfected cells
T1 sequence (Q13510 22-395): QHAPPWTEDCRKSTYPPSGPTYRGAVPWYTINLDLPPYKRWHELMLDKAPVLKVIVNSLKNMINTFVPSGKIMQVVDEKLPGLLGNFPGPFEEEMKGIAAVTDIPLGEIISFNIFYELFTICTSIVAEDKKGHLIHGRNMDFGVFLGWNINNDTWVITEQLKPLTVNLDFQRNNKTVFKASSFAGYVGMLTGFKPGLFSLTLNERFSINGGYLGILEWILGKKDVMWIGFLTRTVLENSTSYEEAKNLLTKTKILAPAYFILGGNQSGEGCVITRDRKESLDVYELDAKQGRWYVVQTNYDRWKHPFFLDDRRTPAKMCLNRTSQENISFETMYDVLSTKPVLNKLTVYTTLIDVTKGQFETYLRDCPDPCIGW
Method: The ability of exemplary compounds to inhibit acid ceramidase was measured.
Cell lysates overexpressing acid ceramidase were used as the enzyme source for compound potency determination in a biochemical fluorescent assay. Briefly, compounds were preincubated with 10 μg protein of cell lysates in a dose-response manner for 1 hr at RT in the assay buffer containing 25 mM NaAC and 100 mM NaCl, pH 4.5. The reaction was initiated by the addition of substrate Rbm14-12 at a final concentration of 6.3 μM. The reaction was run at RT for 1 hr before it was stopped by the addition of the stopping buffer containing 20% methanol (v/v), 1 mg/ml NaIO4, 0.1 M glycine, pH 10.6. The samples were incubated with the stopping buffer at RT for 1 hr to allow the fluorescent product to be formed. Finally, the plate was read with SpectraMax i3 plate reader (Molecular Devices) at ex360 nm and em446 nm. Data were collected and used to determine the IC50 values of compounds by curve fitting to the four-parameter inhibition equation.

[2] = Compound solubility in water
[3] = pH 4.5, 1 hr preincubation at RT

IC50 [1, 3] [µM]	solubility [2] [mg/mL]	IC50 ([1]; pH 4.5) [µM]	SMILES
	0.018 (≈ 41.3 µM)	< 0.2	COc1nc2cc(N3CCN(C(C)=O)CC3)ccc2n1C(=O)NCCCc1ccccc1 [Example 236a, 5-(4-Acetylpiperazin-1-yl)-2-methoxy-N-(3-phenylpropyl)-1H-benzo[d]imidazole-1-carboxamide]
< 0.2	0.0096 (≈ 31.9 µM)		CCCCNC(=O)n1cnc2cc(OC(F)(F)F)ccc21 [Example 70b, N-butyl-5-(trifluoromethoxy)-1H-benzo[d]imidazole-1-carboxamide]
< 0.2	0.0085 (≈ 34.4 µM)		CCCCNC(=O)n1cnc2ccc(OC)cc21 [Example 51b, N-butyl-6-methoxy-1H-benzo[d]imidazole-1-carboxamide]
> 1	0.0003 (≈ 0.803 µM)		Cn1c(=O)n(C(=O)NCCc2ccccc2)c2ccc(-c3cncnc3)cc21 [Example 32b, 3-methyl-2-oxo-N-phenethyl-5-(pyrimidin-5-yl)-2,3-dihydro-1H-benzo[d]imidazole-1-carboxamide]
< 0.2	0.0143 (≈ 46.2 µM)		CC(C)CCNC(=O)n1cnc2ccc(-c3cncnc3)cc21 [Example 103a, N-iso-Pentyl-6-(pyrimidin-5-yl)-1H-benzo[d]imidazole-1-carboxamide]
	0.003 (≈ 7.34 µM)	< 0.2	CCOc1nc2ccc(N3CCOCC3)cc2n1C(=O)NCCCc1ccccc1 [Example 189b, 2-ethoxy-6-morpholino-N-(3-phenylpropyl)-1H-benzo[d]imidazole-1-carboxamide]
	0.03 (≈ 74.6 µM)	0.2 to 1	COc1nc2ccc(N3CCOCC3)cc2n1C(=O)NCCCOC(F)(F)F [Example 233a, 2-Methoxy-6-morpholino-N-(3-(trifluoromethoxy)propyl)-1H-benzo[d]imidazole-1-carboxamide]
	0.039 (≈ 95.9 µM)	> 1	COc1nc2ccc(C3CCN(C)CC3)cc2n1C(=O)NCCCc1ccccc1 [Example 195b, 2-methoxy-6-(1-methylpiperidin-4-yl)-N-(3-phenylpropyl)-1H-benzo[d]imidazole-1-carboxamide]
	0.025 (≈ 60.5 µM)	> 1	COc1nc2cc(N3CCOCC3)ccc2n1C(=O)NCCCc1ccc(F)nc1 [Example 232b, N-(3-(6-fluoropyridin-3-yl)propyl)-2-methoxy-5-morpholino-1H-benzo[d]imidazole-1-carboxamide]

Continued, compound first:

SMILES	IC50 [1, 3] [µM]	solubility [2] [mg/mL]	IC50 ([1]; pH 4.5) [µM]
COc1c(N2CCOCC2)ccc2c1ncn2C(=O)NCCc1ccccc1 [Example 40, 4-Methoxy-5-morpholino-N-phenethyl-1H-benzo[d]imidazole-1-carboxamide]	< 0.2	0.0105 (≈ 27.6 µM)	
CC(C)CCNC(=O)n1cnc2c(N3CCN(C)CC3)cccc21 [Example 119, N-iso-Pentyl-4-(4-methylpiperazin-1-yl)-1H-benzo[d]imidazole-1-carboxamide]	0.2 to 1	0.023 (≈ 69.8 µM)	
CC(C)CNC(=O)n1cnc2ccc(-c3cncnc3)cc21 [Example 16b, N-iso-Butyl-6-(pyrimidin-5-yl)-1H-benzo[d]imidazole-1-carboxamide]	< 0.2	0.0183 (≈ 62 µM)	
CC(C)CCNC(=O)n1c(=O)n(C)c2ncccc21 [Example 105, N-iso-Pentyl-3-methyl-2-oxo-2,3-dihydro-1H-imidazo[4,5-b]pyridine-1-carboxamide]	> 1	0.0174 (≈ 66.3 µM)	
CCN1CCN(c2cccc3c2ncn3C(=O)NCCC(C)C)CC1 [Example 208]		0.031 (≈ 90.3 µM)	0.2 to 1
CCOc1nc2ncccc2n1C(=O)NCCC(C)C [Example 114, 2-Ethoxy-N-iso-pentyl-1H-imidazo[4,5-b]pyridine-1-carboxamide]	0.2 to 1	0.0168 (≈ 60.8 µM)	
CN1CCC(c2cccc3c2ncn3C(=O)NCCc2ccccc2)CC1 [Example 12, 4-(1-Methylpiperidin-4-yl)-N-phenethyl-1H-benzo[d]imidazole-1-carboxamide]	< 0.2	0.0305 (≈ 84.1 µM)	
CN1CCC2(CC1)CN(c1cccc3c1ncn3C(=O)NCCC#Cc1ccccc1)C2 [Example 366, 4-(7-Methyl-2,7-diazaspiro[3.5]nonan-2-yl)-N-(4-phenylbut-3-yn-1-yl)-1H-benzo[d]imidazole-1-carboxamide]	< 0.2	0.021 (≈ 49.1 µM)	
CN1CCC(c2c(C(F)(F)F)ccc3c2ncn3C(=O)NCCc2ccccc2)CC1 [Example 55, 4-(1-Methylpiperidin-4-yl)-N-phenethyl-5-(trifluoromethyl)-1H-benzo[d]imidazole-1-carboxamide]	< 0.2	0.013 (≈ 30.2 µM)	
CN1CCN(c2cccc3c2ncn3C(=O)NCC#CCC2CC2)CC1 [Example 284]		0.03 (≈ 85.4 µM)	< 0.2
CC(=O)N1CCN(c2cccc3c2ncn3C(=O)NCCCCC(C)C)CC1 [Example 223, 4-(4-Acetylpiperazin-1-yl)-N-(5-methylhexyl)-1H-benzo[d]imidazole-1-carboxamide]		0.015 (≈ 38.9 µM)	< 0.2
CN1CC2(CCN(c3cccc4c3ncn4C(=O)NCCC#Cc3ccccc3)CC2)C1 [Example 367, 4-(2-Methyl-2,7-diazaspiro[3.5]nonan-7-yl)-N-(4-phenylbut-3-yn-1-yl)-1H-benzo[d]imidazole-1-carboxamide]	< 0.2	0.027 (≈ 63.2 µM)	
O=C(NCCCC(F)(F)F)n1cnc2ccccc21 [Example 80, N-(4,4,4-Trifluorobutyl)-1H-benzo[d]imidazole-1-carboxamide]	< 0.2	0.0211 (≈ 77.8 µM)	
CN1CCN(c2cccc3c2ncn3C(=O)NCCCc2ccccc2)CC12CC2 [Example 250, 4-(4-Methyl-4,7-diazaspiro[2.5]octan-7-yl)-N-(3-phenylpropyl)-1H-benzo[d]imidazole-1-carboxamide]		0.023 (≈ 57 µM)	< 0.2
CN1CC(N2CCN(c3cccc4c3ncn4C(=O)NCCOc3ccccc3)CC2)C1 [Example 296, 4-(4-(1-Methylazetidin-3-yl)piperazin-1-yl)-N-(2-phenoxyethyl)-1H-benzo[d]imidazole-1-carboxamide]		0.036 (≈ 82.8 µM)	< 0.2
O=C(NCCN1CCOCC1)n1cnc2ccccc21 [Example 41, N-(2-Morpholinoethyl)-1H-benzo[d]imidazole-1-carboxamide]	> 1	0.032 (≈ 117 µM)	
CC(C)CCNC(=O)n1cnc2c(N3CCCOCC3)cccc21 [Example 173, N-iso-Pentyl-4-(1,4-oxazepan-4-yl)-1H-benzo[d]imidazole-1-carboxamide]		0.017 (≈ 51.4 µM)	0.2 to 1
O=C(NC1CCCCC1)n1cnc2c(N3CCOCC3)cccc21 [Example 149, N-Cyclohexyl-4-morpholino-1H-benzo[d]imidazole-1-carboxamide]	> 1	0.015 (≈ 45.7 µM)	
CC(C)CCNC(=O)n1cnc2c(N3CC(C)(C#N)C3)cccc21 [Example 165, 4-(3-Cyano-3-methylazetidin-1-yl)-N-isopentyl-1H-benzo[d]imidazole-1-carboxamide]		0.001 (≈ 3.07 µM)	0.2 to 1
CN1CCN(c2cccc3c2ncn3C(=O)NCCCC2(C(F)(F)F)CC2)CC1 [Example 254, 4-(4-Methylpiperazin-1-yl)-N-(3-(1-(trifluoromethyl)cyclopropyl)propyl)-1H-benzo[d]imidazole-1-carboxamide]		0.02 (≈ 48.8 µM)	< 0.2
C#Cc1ccc(CNC(=O)n2cnc3c(N4CCN(C)CC4)cccc32)cc1 [Example 342, N-(4-Ethynylbenzyl)-4-(4-methylpiperazin-1-yl)-1H-benzo[d]imidazole-1-carboxamide]	< 0.2	0.004 (≈ 10.7 µM)	
CN1CCN(C2CN(c3cccc4c3ncn4C(=O)NCCC#Cc3ccccc3)C2)CC1 [Example 362, 4-(3-(4-Methylpiperazin-1-yl)azetidin-1-yl)-N-(4-phenylbut-3-ynyl)-1H-benzo[d]imidazole-1-carboxamide]	< 0.2	0.023 (≈ 52 µM)	
O=C(NCCc1ccccc1)n1cnc2ncc(C(F)(F)F)cc21 [Example 53, N-Phenethyl-6-(trifluoromethyl)-1H-imidazo[4,5-b]pyridine-1-carboxamide]	< 0.2	0.0047 (≈ 14.1 µM)	
CN1C[C@H]2C[C@@H]1CN2c1cccc2c1ncn2C(=O)NCCCc1ccccc1 [Example 246, 4-((1R,4R)-5-Methyl-2,5-diazabicyclo[2.2.1]heptan-2-yl)-N-(3-phenylpropyl)-1H-benzo[d]imidazole-1-carboxamide]		0.029 (≈ 74.5 µM)	< 0.2
CNC1CCN(c2cccc3c2ncn3C(=O)NCCCc2ccccc2)C1 (stereo not shown) [Example 268, 4-(3-(Methylamino)pyrrolidin-1-yl)-N-(3-phenylpropyl)-1H-benzo[d]imidazole-1-carboxamide]		0.017 (≈ 45 µM)	< 0.2
CC(C)CCNC(=O)n1cnc2c(N3CCO[C@@H](C)C3)cccc21 [Example 171, (S)—N-iso-Pentyl-4-(2-methylmorpholino)-1H-benzo[d]imidazole-1-carboxamide]		0.015 (≈ 45.4 µM)	0.2 to 1
